Measured values published in patent US9289607B2, “Urgency therapy with neuromodulation and C-afferent nerve desensitization” (MEDTRONIC, INC., priority 2010, dated 2016).

How the values were obtained:
Assay type in all cases: in vivo, Sprague-Dawley rats
[1] = test system: bladder rhythmic contraction; test: Bladder rhythmic contraction with L6 spinal nerve stimulation after capsaicin pretreatment
Method: Female Sprague-Dawley rats weighing approximately 200-300 grams (g) were anesthetized with urethane (in particular, two injections, approximately 4 min apart, total 1.2 g urethane/kilogram (kg) rat). The anesthetized rats were maintained with a hot-water-circulating heating pad during the studies.
To record bladder contractions, a polyethylene cannula (IntraMedic PE50 tubing, Stoelting Co., Wood Dale, Ill.), was placed into the bladder of each of the rats via the urethra and the urethra was ligated to ensure an isovolumetric bladder. The urethral cannula was connected with a T connector and linked with a low volume transducer (ADInstrument MLT0380/D, Colorado Springs, Colo.). The signal was amplified through a DC amplifier (ADInstrument, ML119, Colorado Springs, Colo.). The other end of the T connector was linked to a 20 cubic centimeters (cc) syringe with a perfusion pump.
To deliver electrical stimulation, a wire electrode was placed under the L6 spinal nerves of each of the rats bilaterally. The dorsal skin around sacral and thoracic surface was shaved and a dorsal midline incision was made from approximately spinal nerve L3 to S2. A combination of sharp and blunt dissection was used to expose the left L6/S1 posterior interarticular process. The S1 transverse process was visualized and removed, and the L6 nerves were located caudal and medial to the sacroiliac junction and were then exposed distal to their emergence from the intervertebral foramina. Two bared portions of a teflon-coated, 40-gauge, stainless steel wire (Cooner Wire Co., Chatsworth, Calif.) were placed bilaterally under each of the L6 nerve. A silicone adhesive (Kwik-Cast, World Precision Instruments, Inc, Sarasota, Fla.) was applied to cover the wire around the nerve. The muscle and incision were closed with silk suture. The wire electrode and a needle electrode under the skin of the tail served as the stimulating cathode and the indifferent anode, respectively.
Biphasic pulses having a pulse width of about 0.1 ms and different intensities were used to stimulate the spinal nerve at frequencies ranging from 0.01 Hz to 100 Hz. A Grass S88 stimulator (Grass Technologies, West Warwick, R.I.) with an SIU5 stimulus isolator (Grass Technologies, West Warwick, R.I.) was used to generate stimulus pulses. Electrical stimulation of spinal nerves with pulses of sufficient intensity evoked hind-toe twitches and pelvic floor muscle contractions. In each rat, the motor threshold, defined by the lowest intensity to evoke any of those muscle contractions was tested. The rats with motor threshold over 0.4 mA were excluded from the study. The intensities of stimulation were given either at 0.6 mA or threshold intensity, which was adjusted until the muscle contraction was just discernible in each animal.
(§1) Thirty-two rats were chronically treated with capsaicin or vehicle (e.g., solution without capsaicin added). Capsaicin (Sigma-Aldrich, St. Louis, Mo.) was administered to the rats in a vehicle solution containing approximately 20 milligrams (mg)/milliliters (mL) capsaicin in a mixture of approximately 10% ethanol, approximately 10% Tween 80 and approximately 80% physiological saline. For each of the rats, capsaicin (125 mg/kg) was given subcutaneously in the hindlimb in divided doses on 2 consecutive days: on the first day, a first dose of 25 mg/kg was administered, and, twelve hours later, a second dose of 50 mg/kg was administered, and on the second day, a third dose of 50 mg/kg was administered. Injections were performed under isoflurane anesthesia. Control rats received a corresponding volume of vehicles. Experiments on the effect of neurostimulation on rhythmic bladder contraction were conducted approximately 4 days after injection of the third dose was administered. To evaluate the effectiveness of capsaicin pretreatment, an eye wipe test was performed on each unanesthetized animal just before the experiment. […]

[2] = Behaviour after subcutaneous capsaicin injection
Method: as §1, with “experiment. A drop of approximately 100 microgram per milliliter (μg/mL) capsaicin solution was instilled into an eye of the animal and the number of defensive wiping movements was counted.” for “experiment.”

[3] = Eye wipe test of capsaicin pretreatment effectiveness; settings: drop of 100 μg/mL capsaicin solution in eye; rats pretreated with capsaicin 125 mg/kg s.c.; 16 rats
Method: as §1, with “experiment. A drop of approximately 100 microgram per milliliter (μg/mL) capsaicin solution was instilled into an eye of the animal and the number of defensive wiping movements was counted.” for “experiment.”

[4] = capsaicin 125 mg/kg s.c. pretreatment 4 days before, mean control before stimulation, 8 rats, mean±SEM
[5] = capsaicin 125 mg/kg s.c. pretreatment, stimulation approximately 0.6 mA, 0.5 Hz

SMILES: COc1cc(CNC(=O)CCCC/C=C/C(C)C)ccc1O [capsaicin, Capsaicin]
- average amplitude of bladder contractions prior to neurostimulation [1, 4]: approximately 19.24±1.89 mmHg
- mean frequency of bladder contractions prior to neurostimulation [1, 4]: approximately 3.19±0.20 contractions per 5 minutes
- persistence of inhibition after stimulation was terminated (FIG. 12A) [1, 5]: more than 20 minutes
- rhythmic bladder contractions during spinal nerve stimulation (FIG. 12A) [1, 5]: substantially completely inhibited
- bladder contractions with spinal nerve stimulation at threshold intensity (FIG. 12B) ([1]; capsaicin 125 mg/kg s.c. pretreatment, threshold intensity about 0.01 mA, about 10 Hz, particularly after termination of stimulation): attenuated bladder contractions
- frequency of the bladder rhythmic contraction ([1]; capsaicin approximately 125 mg/kg s.c. pretreatment, stimulation approximately 0.6 mA, six rats, p<0.05 vs vehicle pretreated, two-way ANOVA (FIG. 13A)): 18±14 % of control
- mean frequency and amplitude of bladder contractions, capsaicin-treated versus vehicle-treated rats ([1]; prior to delivery of neurostimulation): did not differ
- effect on bladder rhythmic contraction of stimulation at threshold intensity (FIG. 13B) ([1]; threshold intensity approximately 0.01 mA, believed not statistically significant): trend of inhibitory effects
- aversive behaviours thereafter ([2]; after the first 3-4 hours, capsaicin 125 mg/kg s.c. in divided doses over 2 days): no aversive behaviors were observed
- behaviour following the first capsaicin injection ([2]; approximately 3-4 hours after first capsaicin injection (25 mg/kg s.c., hindlimb)): signs of pain behaviors
- reaction in the eye wipe test (defensive wiping movements) [3]: no reaction
